Source: US8952024B2, “Herbicidal pyrimidone derivatives” (E I du Pont de Nemours and Company, priority 2009, dated 2015)

Columns and labels:
Type in all cases: in vivo
[1] = tested on: Surinam grass (Brachiaria decumbens); assay: Test B pre-/postemergence plant response
From the text: (§1) Seeds of plant species selected from blackgrass (Alopecurus myosuroides), downy bromegrass (Bromus tectorum), green foxtail (Setaria viridis), Italian ryegrass (Lolium multiflorum), wheat (Triticum aestivum), wild oat (Avena fatua), deadnettle (henbit deadnettle, Lamium amplexicaule), galium (catchweed bedstraw, Galium aparine), bermudagrass (Cynodon dactylon), Surinam grass (Brachiaria decumbens), cocklebur (Xanthium strumarium), corn (Zea mays), large crabgrass (Digitaria sanguinalis), woolly cupgrass (Eriochloa villosa), giant foxtail (Setaria faberii), goosegrass (Eleusine indica), johnsongrass (Sorghum halepense), kochia (Kochia scoparia), lambsquarters (Chenopodium album), morningglory (Ipomoea coccinea), nightshade (eastern black nightshade, Solanum ptycanthum), yellow nutsedge (Cyperus esculentus), pigweed (Amaranthus retroflexus), ragweed (common ragweed, Ambrosia elatior), Russian thistle (Salsola kali), soybean (Glycine max), sunflower (common oilseed sunflower, Helianthus annuus) and velvetleaf (Abutilon theophrasti) were planted into a blend of loam soil and sand and treated preemergence with test compounds formulated in a non-phytotoxic solvent mixture which included a surfactant.
(§2) At the same time, plants selected from these crop and weed species and also winter barley (Hordeum vulgare), canarygrass (Phalaris minor), chickweed (Stellaria media) and windgrass (Apera spica-venti) were planted in pots containing Redi-Earth® planting medium (Scotts Company, 14111 Scottslawn Road, Marysville, Ohio 43041) comprising spaghnum peat moss, vermiculite, wetting agent and starter nutrients and treated with postemergence applications of some of the test chemicals formulated in the same manner. Plants ranged in height from 2 to 18 cm (1- to 4-leaf stage) for postemergence treatments.
(§3) Treated plants and controls were maintained in a greenhouse for 13 to 15 days, after which time all treated plants were visually evaluated and compared to controls. Plant response ratings, summarized in Table B, are based on a scale of 0 to 100 where 0 is no effect and 100 is complete control. A dash (-) response means no test result.

[2] = tested on: bermudagrass (Cynodon dactylon); assay: Test B pre-/postemergence plant response
From the text: as §1, §2, §3

[3] = tested on: downy bromegrass (Bromus tectorum); assay: Test B pre-/postemergence plant response
From the text: as §1, §2, §3

[4] = tested on: lambsquarters (Chenopodium album); assay: Test B pre-/postemergence plant response
From the text: as §1, §2, §3

[5] = tested on: pigweed (Amaranthus retroflexus); assay: Test B pre-/postemergence plant response
From the text: as §1, §2, §3

[6] = tested on: wheat (Triticum aestivum); assay: Test B pre-/postemergence plant response
From the text: as §1, §2, §3

[7] = tested on: woolly cupgrass (Eriochloa villosa); assay: Test B pre-/postemergence plant response
From the text: as §1, §2, §3

[8] = tested on: yellow nutsedge (Cyperus esculentus); assay: Test B pre-/postemergence plant response
From the text: as §1, §2, §3

[9] = tested on: barnyardgrass (Echinochloa crus-galli); assay: Test B flooded paddy test; details: for Plant response rating, Flood, Barnyardgrass: 250 g ai/ha, flooded paddy test, visual rating on 0 to 100 scale (0 no effect, 100 complete control) after 13 to 15 days; for Plant response rating, Barnyardgrass: Flood (flooded paddy test), 13 to 15 days
Summary of the method: (§4)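 Plants were grown to the 2-leaf stage, then pots were flooded to 3 cm above the soil and compounds were applied directly into the paddy water. That depth was held throughout. After 13 to 15 days in a greenhouse, injury was visually rated against controls on a 0–100 scale.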

[10] = tested on: ducksalad (Heteranthera limosa); assay: Test B flooded paddy test; details: for Plant response rating, Flood, Ducksalad: 250 g ai/ha, flooded paddy test, visual rating on 0 to 100 scale (0 no effect, 100 complete control) after 13 to 15 days; for Plant response rating, Ducksalad: Flood (flooded paddy test), 13 to 15 days
Summary of the method: as §4

[11] = tested on: rice (Oryza sativa); assay: Test B flooded paddy test; details: for Plant response rating, Flood, Rice: 250 g ai/ha, flooded paddy test, visual rating on 0 to 100 scale (0 no effect, 100 complete control) after 13 to 15 days; for Plant response rating, Rice: Flood (flooded paddy test), 13 to 15 days
Summary of the method: as §4

[12] = tested on: umbrella sedge (Cyperus difformis); assay: Test B flooded paddy test; details: for Plant response rating, Flood, Sedge, Umbrella: 250 g ai/ha, flooded paddy test, visual rating on 0 to 100 scale (0 no effect, 100 complete control) after 13 to 15 days; for Plant response rating, Sedge, Umbrella: Flood (flooded paddy test), 13 to 15 days
Summary of the method: as §4

[13] = 250 g ai/ha, Preemergence, 0 to 100 scale
[14] = Postemergence, 31 g ai/ha, scale 0 to 100 (0 no effect, 100 complete control)
[15] = Postemergence, 62 g ai/ha, scale 0 (no effect) to 100 (complete control), 13 to 15 days
[16] = Postemergence, 125 g ai/ha, visual rating after 13 to 15 days, scale 0 (no effect) to 100 (complete control)
[17] = Postemergence, 250 g ai/ha, scale 0 to 100
[18] = Preemergence, 31 g ai/ha, scale 0 to 100 (0 no effect, 100 complete control)
[19] = Preemergence, 62 g ai/ha, scale 0 to 100 (0 no effect, 100 complete control)
[20] = Preemergence, 125 g ai/ha, 0 to 100 scale
[21] = 62 g ai/ha, scale 0 to 100, 0 is no effect, 100 is complete control
[22] = 31 g ai/ha, scale of 0 to 100 where 0 is no effect and 100 is complete control
[23] = 125 g ai/ha, scale 0 to 100, 0 is no effect, 100 is complete control

O=C1CCCC(O)=C1C(=O)c1cnc(-c2ccccc2)n(-c2ccccc2F)c1=O [Compound 26]
15: Plant response rating, Bromegrass, Downy [3, 15]
70: Plant response rating, Bermudagrass [2, 19]
5: Plant response rating, Surinam Grass [1, 19] | Plant response rating, Bermudagrass [2, 18] | Plant response rating, Wheat [6, 16] | Plant response rating, Cupgrass, Woolly [7, 19]
40: Plant response rating, Surinam Grass [1, 15] | Plant response rating, Bermudagrass [2, 14] | Bromegrass, Downy plant response rating [3, 17] | Plant response rating, Cupgrass, Woolly [7, 14] | Plant response rating, Cupgrass, Woolly [7, 15]
10: Plant response rating, Bromegrass, Downy [3, 13] | Plant response rating, Bromegrass, Downy [3, 14] | Plant response rating, Nutsedge, Yellow [8, 18]
80: Plant response rating, Lambsquarters [4, 14] | Plant response rating, Pigweed [5, 15]
50: Plant response rating, Bermudagrass [2, 15] | Plant response rating, Pigweed [5, 14] | Cupgrass, Woolly plant response rating [7, 20] | Plant response rating, Nutsedge, Yellow [8, 19] | Nutsedge, Yellow plant response rating [8, 20]
98: Bermudagrass plant response rating [2, 20] | Lambsquarters plant response rating [4, 17] | Plant response rating, Lambsquarters [4, 18] | Pigweed plant response rating [5, 17] | Plant response rating, Pigweed [5, 18]
0: Plant response rating, Surinam Grass [1, 18] | Plant response rating, Bromegrass, Downy [3, 18] | Plant response rating, Bromegrass, Downy [3, 19] | Bromegrass, Downy plant response rating [3, 20] | Plant response rating, Wheat [6, 13] | Plant response rating, Wheat [6, 14] | Plant response rating, Wheat [6, 15] | Plant response rating, Wheat [6, 18] | Plant response rating, Wheat [6, 19] | Wheat plant response rating [6, 20] | Plant response rating, Cupgrass, Woolly [7, 18] | Plant response rating, Flood, Barnyardgrass [9] | Plant response rating, Barnyardgrass [9, 21] | Plant response rating, Flood, Rice [11] | Plant response rating, Rice [11, 21]
85: Plant response rating, Pigweed [5, 16] | Plant response rating, Cupgrass, Woolly [7, 13] | Plant response rating, Cupgrass, Woolly [7, 16] | Cupgrass, Woolly plant response rating [7, 17] | Plant response rating, Nutsedge, Yellow [8, 13] | Plant response rating, Flood, Ducksalad [10] | Plant response rating, Flood, Sedge, Umbrella [12]
60: Plant response rating, Surinam Grass [1, 16] | Surinam Grass plant response rating [1, 17] | Plant response rating, Bermudagrass ([2]; Postemergence, 125 g ai/ha, scale 0 to 100 (0 no effect, 100 complete control), 13 to 15 days)
100: Plant response rating, Bermudagrass [2, 13] | Plant response rating, Lambsquarters [4, 13] | Plant response rating, Lambsquarters [4, 19] | Lambsquarters plant response rating [4, 20] | Plant response rating, Pigweed [5, 13] | Plant response rating, Pigweed [5, 19] | Pigweed plant response rating [5, 20]
35: Plant response rating, Nutsedge, Yellow [8, 16] | Nutsedge, Yellow plant response rating [8, 17]
30: Plant response rating, Surinam Grass [1, 14] | Wheat plant response rating [6, 17] | Plant response rating, Nutsedge, Yellow [8, 14] | Plant response rating, Nutsedge, Yellow [8, 15]
90: Plant response rating, Surinam Grass [1, 13] | Surinam Grass plant response rating [1, 20] | Plant response rating, Lambsquarters [4, 15] | Plant response rating, Lambsquarters [4, 16]
20: Plant response rating, Bromegrass, Downy [3, 16]
75: Bermudagrass plant response rating [2, 17] | Plant response rating, Ducksalad [10, 21] | Plant response rating, Sedge, Umbrella [12, 21]

Cc1cc(C)cc(-n2c(-c3ccccc3)ncc(C(=O)C3=C(O)CCCC3=O)c2=O)c1 [Compound 33]
45: Plant response rating, Nutsedge, Yellow [8, 19]
65: Plant response rating, Surinam Grass [1, 15] | Plant response rating, Surinam Grass [1, 19] | Plant response rating, Cupgrass, Woolly [7, 14] | Plant response rating, Cupgrass, Woolly [7, 15]
90: Cupgrass, Woolly plant response rating [7, 17] | Plant response rating, Nutsedge, Yellow [8, 13]
85: Plant response rating, Cupgrass, Woolly [7, 13] | Plant response rating, Flood, Sedge, Umbrella [12]
50: Plant response rating, Cupgrass, Woolly [7, 19] | Plant response rating, Nutsedge, Yellow [8, 15] | Plant response rating, Flood, Rice [11] | Plant response rating, Sedge, Umbrella [12, 23]
20: Bromegrass, Downy plant response rating [3, 17] | Plant response rating, Barnyardgrass [9, 21] | Plant response rating, Rice [11, 23] | Plant response rating, Sedge, Umbrella [12, 22]
30: Plant response rating, Bromegrass, Downy [3, 13] | Plant response rating, Barnyardgrass [9, 23] | Plant response rating, Sedge, Umbrella [12, 21]
60: Cupgrass, Woolly plant response rating [7, 20] | Plant response rating, Ducksalad [10, 22]
5: Plant response rating, Bromegrass, Downy [3, 14] | Plant response rating, Bromegrass, Downy [3, 15] | Bromegrass, Downy plant response rating [3, 20] | Plant response rating, Wheat [6, 13] | Plant response rating, Wheat [6, 16]
98: Plant response rating, Bermudagrass [2, 16] | Bermudagrass plant response rating [2, 17] | Plant response rating, Bermudagrass [2, 18] | Plant response rating, Lambsquarters [4, 15] | Plant response rating, Lambsquarters [4, 16] | Plant response rating, Lambsquarters [4, 18] | Plant response rating, Pigweed [5, 16]
70: Plant response rating, Cupgrass, Woolly [7, 16] | Nutsedge, Yellow plant response rating [8, 20]
0: Plant response rating, Surinam Grass [1, 18] | Plant response rating, Bromegrass, Downy [3, 18] | Plant response rating, Bromegrass, Downy [3, 19] | Plant response rating, Wheat [6, 15] | Plant response rating, Wheat [6, 18] | Plant response rating, Wheat [6, 19] | Wheat plant response rating [6, 20] | Plant response rating, Nutsedge, Yellow [8, 18] | Plant response rating, Barnyardgrass [9, 22] | Plant response rating, Rice [11, 22] | Plant response rating, Rice [11, 21]
75: Plant response rating, Surinam Grass [1, 16] | Plant response rating, Bermudagrass [2, 14] | Plant response rating, Nutsedge, Yellow [8, 16] | Plant response rating, Ducksalad [10, 21]
10: Plant response rating, Bromegrass, Downy [3, 16] | Plant response rating, Cupgrass, Woolly [7, 18]
40: Plant response rating, Flood, Barnyardgrass [9]
80: Plant response rating, Ducksalad [10, 23]
95: Surinam Grass plant response rating [1, 20] | Plant response rating, Bermudagrass [2, 15] | Plant response rating, Pigweed [5, 15] | Plant response rating, Flood, Ducksalad [10]
100: Plant response rating, Surinam Grass [1, 13] | Plant response rating, Bermudagrass [2, 13] | Plant response rating, Bermudagrass [2, 19] | Bermudagrass plant response rating [2, 20] | Plant response rating, Lambsquarters [4, 13] | Lambsquarters plant response rating [4, 17] | Plant response rating, Lambsquarters [4, 19] | Lambsquarters plant response rating [4, 20] | Plant response rating, Pigweed [5, 13] | Plant response rating, Pigweed [5, 18] | Plant response rating, Pigweed [5, 19] | Pigweed plant response rating [5, 20]
